The results in this text go back to paper PMC8237609 (Molecular Metabolism, 2021).

This assay addresses human recombinant LANCL1 (hLANCL1) (Homo sapiens, UniProt O43813). As to the kind of experiment: [3H]ABA equilibrium saturation binding, nitrocellulose filtration.

Chain of human recombinant LANCL1 (hLANCL1) (O43813 whole entry): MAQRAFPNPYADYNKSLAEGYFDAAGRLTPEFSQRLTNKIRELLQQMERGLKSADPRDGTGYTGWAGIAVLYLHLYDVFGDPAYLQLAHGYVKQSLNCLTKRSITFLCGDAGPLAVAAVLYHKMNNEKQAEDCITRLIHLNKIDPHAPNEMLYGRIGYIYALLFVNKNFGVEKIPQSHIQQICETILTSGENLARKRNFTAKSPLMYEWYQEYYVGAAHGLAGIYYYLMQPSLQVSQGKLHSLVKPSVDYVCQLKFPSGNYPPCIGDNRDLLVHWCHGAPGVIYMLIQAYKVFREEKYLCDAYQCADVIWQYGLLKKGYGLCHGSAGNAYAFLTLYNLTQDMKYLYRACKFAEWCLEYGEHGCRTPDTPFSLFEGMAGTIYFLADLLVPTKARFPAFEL

On to `CC1=CC(=O)CC(C)(C)C1(O)/C=C/C(C)=C\C(=O)O` (racemic) [ABA, (±)-ABA], for which the dissociation constant (Kd) amounted to 1 ± 0.4 µM.
